Experimental data: ChEMBL document CHEMBL2074130, “Reversal of breast cancer resistance protein-mediated drug resistance by estrogen antagonists and agonists” (Mol Cancer Ther, 2003)

molecular target: T1, Broad substrate specificity ATP-binding cassette transporter ABCG2 (Homo sapiens, UniProt Q9UNQ0); test: TP_TRANSPORTER: drug resistance in BCRP-expressing K562 cells; assay type: functional, cell-based
T1 sequence (Q9UNQ0 whole entry): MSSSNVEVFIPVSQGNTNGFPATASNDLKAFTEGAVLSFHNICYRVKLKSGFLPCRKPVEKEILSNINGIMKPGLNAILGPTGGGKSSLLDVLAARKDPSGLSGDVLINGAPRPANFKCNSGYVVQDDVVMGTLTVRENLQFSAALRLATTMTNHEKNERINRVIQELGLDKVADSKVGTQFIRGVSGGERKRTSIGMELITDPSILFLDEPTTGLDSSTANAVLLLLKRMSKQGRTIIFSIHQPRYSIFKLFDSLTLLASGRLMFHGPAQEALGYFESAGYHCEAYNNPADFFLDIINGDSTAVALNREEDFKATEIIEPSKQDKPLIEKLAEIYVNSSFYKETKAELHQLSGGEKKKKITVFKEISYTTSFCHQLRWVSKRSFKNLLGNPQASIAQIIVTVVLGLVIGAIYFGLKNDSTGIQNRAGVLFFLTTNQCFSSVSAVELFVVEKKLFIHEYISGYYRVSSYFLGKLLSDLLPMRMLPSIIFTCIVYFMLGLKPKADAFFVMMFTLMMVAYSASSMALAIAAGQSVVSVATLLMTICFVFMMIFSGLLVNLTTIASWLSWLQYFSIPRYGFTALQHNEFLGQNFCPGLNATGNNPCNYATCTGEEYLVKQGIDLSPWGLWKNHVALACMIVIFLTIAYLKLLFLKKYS

Compound	Activity
CCc1c2c(nc3ccc(O)cc13)-c1cc3c(c(=O)n1C2)COC(=O)[C@]3(O)CC [7-ETHYL-10-HYDROXYCAMPTOTHECIN]	substrate []
O=C1c2c(O)ccc(O)c2C(=O)c2c(NCCNCCO)ccc(NCCNCCO)c21 [MITOXANTRONE]	substrate []
CC[C@@]1(O)C(=O)OCc2c1cc1n(c2=O)Cc2cc3c(CN(C)C)c(O)ccc3nc2-1 [TOPOTECAN]	substrate []

molecular target: T1, Broad substrate specificity ATP-binding cassette transporter ABCG2; test: TP_TRANSPORTER: inhibition of topotecan uptake in BCRP-expressing K562 cells; assay type: functional, cell-based

Compound	Activity
CC/C(=C(/c1ccc(OCCN(C)C)cc1)c1ccc(OCc2ccc([N+](=O)[O-])cc2)cc1)c1ccccc1	inhibitor []
CC/C(=C(\c1ccc(O)cc1)c1ccc(OCCNC)cc1)c1ccc(C(C)CO)cc1 (configuration not stated)	inhibitor []
CC/C(=C(\c1ccc(O)cc1)c1ccc(OCCN(C)C)cc1)c1ccc(OC)cc1	inhibitor []
CC/C(=C(\c1ccc(O)cc1)c1ccc(OCCN(C)C)cc1)c1ccc(OCc2ccccc2)cc1	inhibitor []
CC/C(=C(/c1ccc(OCCN(C)C)cc1)c1ccc(OCc2ccccc2)cc1)c1ccccc1	inhibitor []
CCC(=O)Oc1ccc(/C(CC)=C(\CC)c2ccc(OC(=O)CC)cc2)cc1 [DIETHYLSTILBESTROL DIPROPIONATE]	inhibitor []
CC/C(=C(/CC)c1ccc(O)cc1)c1ccc(O)cc1 [DIETHYLSTILBESTROL]	inhibitor []
C[C@]12CC[C@@H]3c4ccc(O)cc4CC[C@H]3[C@@H]1CCC2=O [ESTRONE]	inhibitor []
CC/C(=C(\c1ccc(O)cc1)c1ccc(OCCN(C)C)cc1)c1ccc(C(C)C)cc1 [MIPROXIFENE]	inhibitor []
